# Results published in paper PMC11876601 (Molecular Systems Biology, 2025).
# Read-outs that look alike come from different tables or passages of the source.
# Columns and labels:
# [1] = biological target: TP53RK ; Q96S44 (Homo sapiens, UniProt Q96S44); assay: biochemical; parameters: species or system AsPC-1; Kinobeads competition pulldown in AsPC-1 lysate with LC-MS/MS label-free quantification; apparent Kd
# Procedure: (§1) This was followed by incubation with Kinobeads ε (17.5 µl of settled beads) for 30 min at 4 °C to enrich kinases. […] Enriched proteins were reduced with 50 mM DTT in 8 M urea, 40 mM Tris-HCl, pH 7.4 for 30 min at room temperature, and alkylated with 55 mM chloroacetamide. After reducing the urea concentration to 1–2 M, proteins were digested with trypsin at 37 °C for 16 h. Subsequently, eluted peptides were desalted using SepPak tC18 µElution plates (Waters), freeze-dried by vacuum centrifugation, and stored at −20 °C. Proteins were filtered by potential contaminants, reversed hits and proteins identified only by site. Residual binding of proteins was calculated from LFQ intensities as the ratio between drug doses and vehicle. […] Only kinases quantified with at least 4 unique peptides in the vehicle experiment were considered. Potential targets were further curated through manual inspection of dose-dependent reduction in MS/MS and unique peptide counts.
# [2] = biological target: CDC42BPA ; Q5VT25-5;Q5VT25-4;Q5VT25;Q5VT25-2;Q5VT25-6;Q5VT25-3 (Homo sapiens, UniProt Q5VT25); assay: biochemical; parameters: species or system AsPC-1; Kinobeads competition pulldown in AsPC-1 lysate with LC-MS/MS label-free quantification; apparent Kd
# Procedure: as §1
# [3] = biological target: CIT ; O14578-4;O14578;O14578-2 (Homo sapiens, UniProt O14578); assay: biochemical; parameters: species or system AsPC-1; Kinobeads competition pulldown in AsPC-1 lysate with LC-MS/MS label-free quantification; apparent Kd
# Procedure: as §1
# [4] = biological target: CDK10 ; Q15131;Q15131-5;Q15131-2;Q15131-6;Q15131-4;Q15131-3;Q15131-7 (Homo sapiens, UniProt Q15131); assay: biochemical; parameters: species or system AsPC-1; Kinobeads competition pulldown in AsPC-1 lysate with LC-MS/MS label-free quantification; apparent Kd
# Procedure: as §1
# [5] = biological target: CLK1 ; P49759-3;P49759;P49759-2 (Homo sapiens, UniProt P49759); assay: biochemical; parameters: species or system AsPC-1; Kinobeads competition pulldown in AsPC-1 lysate with LC-MS/MS label-free quantification; apparent Kd
# Procedure: as §1
# [6] = biological target: AXL ; P30530-2;P30530 (Homo sapiens, UniProt P30530); assay: biochemical; parameters: species or system AsPC-1; Kinobeads competition pulldown in AsPC-1 lysate with LC-MS/MS label-free quantification; apparent Kd
# Procedure: as §1
# [7] = biological target: FN3KRP ; Q9HA64 (Homo sapiens, UniProt Q9HA64); assay: biochemical; parameters: species or system AsPC-1; Kinobeads competition pulldown in AsPC-1 lysate with LC-MS/MS label-free quantification; apparent Kd
# Procedure: as §1
# [8] = biological target: CLK2 ; P49760-3;P49760 (Homo sapiens, UniProt P49760); assay: biochemical; parameters: species or system AsPC-1; Kinobeads competition pulldown in AsPC-1 lysate with LC-MS/MS label-free quantification; apparent Kd
# Procedure: as §1
# [9] = biological target: CSNK2A2 ; P19784 (Homo sapiens, UniProt P19784); assay: biochemical; parameters: species or system AsPC-1; Kinobeads competition pulldown in AsPC-1 lysate with LC-MS/MS label-free quantification; apparent Kd
# Procedure: as §1
# [10] = biological target: PIP4K2C ; Q8TBX8;Q8TBX8-2;Q8TBX8-3 (Homo sapiens, UniProt Q8TBX8); assay: biochemical; parameters: species or system AsPC-1; Kinobeads competition pulldown in AsPC-1 lysate with LC-MS/MS label-free quantification; apparent Kd
# Procedure: as §1
# [11] = biological target: GSK3B ; P49841-2;P49841 (Homo sapiens, UniProt P49841); assay: biochemical; parameters: species or system AsPC-1; Kinobeads competition pulldown in AsPC-1 lysate with LC-MS/MS label-free quantification; apparent Kd
# Procedure: as §1
# [12] = system: FAMPAC cells; assay: Drug combination viability screen (ATPlite, 72 h); format: cell-based, human; parameters: AUC: unit not given beside the values; Reponse: unit not given here; settings: for EC50: Homo sapiens;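 on AUC: area under vehicle-normalized viability curve scaled 0 to 100 percent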;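 on Curve bottom: fraction of vehicle control viability from four-parameter log-logistic fit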
# Procedure: Cell viability was assessed by measuring ATP levels to indicate metabolic activity.
# Afterward, small amounts were transferred to 384-well intermediate plates (Greiner Bio-One GmbH, Germany). […] For drug combination screening, 1000 to 5000 cells were seeded into 384-well plates (CulturPlate™, Perkin Elmer, MA, USA) using a Multidrop™ Combi Reagent Dispenser (Thermo Scientific, MA, USA) in 50 µl medium per well 24 h prior to drug treatment (seeding densities see Appendix Table S1). […] The final DMSO concentration in each well was 0.2%. […] Eight wells per plate without library drug served as negative controls, and sixteen wells per plate containing 5 µM Staurosporine served as positive controls. Control plates not containing any drug were used to correct for incubation effects, and data quality was assessed by calculation of Z-prime of positive and negative controls according to1 Z-prime=1−3SDpos+3SDneg/[…] where SD is the standard deviation. […] Dose–response curves from the experimental and hypothetical data were compared, and shifts in AUC were used to describe combination effects (AUC∆ = AUChypothetical − AUCexperimental). […] Only combinations with R^2 > 0.8 in both conditions were considered in the synergy analysis.
# GSK3B ; P49841-2;P49841, sequence (P49841 whole entry): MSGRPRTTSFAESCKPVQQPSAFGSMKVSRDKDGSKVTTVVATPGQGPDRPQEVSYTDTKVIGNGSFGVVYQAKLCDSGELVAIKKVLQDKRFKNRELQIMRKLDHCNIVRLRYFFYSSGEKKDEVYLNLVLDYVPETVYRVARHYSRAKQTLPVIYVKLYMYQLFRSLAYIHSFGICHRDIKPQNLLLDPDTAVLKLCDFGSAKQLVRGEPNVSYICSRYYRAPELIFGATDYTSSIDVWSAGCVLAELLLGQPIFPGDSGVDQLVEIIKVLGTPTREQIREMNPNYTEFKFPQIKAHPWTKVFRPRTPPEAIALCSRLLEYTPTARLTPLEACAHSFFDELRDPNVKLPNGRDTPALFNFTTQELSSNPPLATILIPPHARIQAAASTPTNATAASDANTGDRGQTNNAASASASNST
# AXL ; P30530-2;P30530, sequence (P30530 whole entry): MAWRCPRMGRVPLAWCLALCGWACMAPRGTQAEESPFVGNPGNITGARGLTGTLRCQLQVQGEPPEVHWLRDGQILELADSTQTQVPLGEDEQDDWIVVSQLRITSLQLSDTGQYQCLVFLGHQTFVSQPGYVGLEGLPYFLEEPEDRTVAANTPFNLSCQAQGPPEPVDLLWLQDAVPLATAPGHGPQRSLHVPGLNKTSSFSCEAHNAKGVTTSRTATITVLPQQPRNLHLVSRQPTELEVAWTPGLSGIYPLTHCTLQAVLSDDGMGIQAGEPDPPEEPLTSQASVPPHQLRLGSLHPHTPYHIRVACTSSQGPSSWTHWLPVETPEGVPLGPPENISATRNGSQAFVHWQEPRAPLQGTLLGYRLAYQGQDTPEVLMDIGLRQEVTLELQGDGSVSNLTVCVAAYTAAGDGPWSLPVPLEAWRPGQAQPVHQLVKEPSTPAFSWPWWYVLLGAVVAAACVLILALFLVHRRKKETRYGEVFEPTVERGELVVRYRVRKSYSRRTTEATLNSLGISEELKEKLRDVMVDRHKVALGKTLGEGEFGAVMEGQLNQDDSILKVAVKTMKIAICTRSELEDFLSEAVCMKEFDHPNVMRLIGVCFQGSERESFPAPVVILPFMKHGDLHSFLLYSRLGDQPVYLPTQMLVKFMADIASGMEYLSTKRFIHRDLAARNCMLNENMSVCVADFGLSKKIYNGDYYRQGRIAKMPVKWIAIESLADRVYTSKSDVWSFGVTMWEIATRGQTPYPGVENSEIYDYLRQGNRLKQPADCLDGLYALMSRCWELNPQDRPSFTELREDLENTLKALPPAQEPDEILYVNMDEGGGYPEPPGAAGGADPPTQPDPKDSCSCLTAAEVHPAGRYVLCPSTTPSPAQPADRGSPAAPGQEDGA
# CIT ; O14578-4;O14578;O14578-2, sequence (O14578 whole entry): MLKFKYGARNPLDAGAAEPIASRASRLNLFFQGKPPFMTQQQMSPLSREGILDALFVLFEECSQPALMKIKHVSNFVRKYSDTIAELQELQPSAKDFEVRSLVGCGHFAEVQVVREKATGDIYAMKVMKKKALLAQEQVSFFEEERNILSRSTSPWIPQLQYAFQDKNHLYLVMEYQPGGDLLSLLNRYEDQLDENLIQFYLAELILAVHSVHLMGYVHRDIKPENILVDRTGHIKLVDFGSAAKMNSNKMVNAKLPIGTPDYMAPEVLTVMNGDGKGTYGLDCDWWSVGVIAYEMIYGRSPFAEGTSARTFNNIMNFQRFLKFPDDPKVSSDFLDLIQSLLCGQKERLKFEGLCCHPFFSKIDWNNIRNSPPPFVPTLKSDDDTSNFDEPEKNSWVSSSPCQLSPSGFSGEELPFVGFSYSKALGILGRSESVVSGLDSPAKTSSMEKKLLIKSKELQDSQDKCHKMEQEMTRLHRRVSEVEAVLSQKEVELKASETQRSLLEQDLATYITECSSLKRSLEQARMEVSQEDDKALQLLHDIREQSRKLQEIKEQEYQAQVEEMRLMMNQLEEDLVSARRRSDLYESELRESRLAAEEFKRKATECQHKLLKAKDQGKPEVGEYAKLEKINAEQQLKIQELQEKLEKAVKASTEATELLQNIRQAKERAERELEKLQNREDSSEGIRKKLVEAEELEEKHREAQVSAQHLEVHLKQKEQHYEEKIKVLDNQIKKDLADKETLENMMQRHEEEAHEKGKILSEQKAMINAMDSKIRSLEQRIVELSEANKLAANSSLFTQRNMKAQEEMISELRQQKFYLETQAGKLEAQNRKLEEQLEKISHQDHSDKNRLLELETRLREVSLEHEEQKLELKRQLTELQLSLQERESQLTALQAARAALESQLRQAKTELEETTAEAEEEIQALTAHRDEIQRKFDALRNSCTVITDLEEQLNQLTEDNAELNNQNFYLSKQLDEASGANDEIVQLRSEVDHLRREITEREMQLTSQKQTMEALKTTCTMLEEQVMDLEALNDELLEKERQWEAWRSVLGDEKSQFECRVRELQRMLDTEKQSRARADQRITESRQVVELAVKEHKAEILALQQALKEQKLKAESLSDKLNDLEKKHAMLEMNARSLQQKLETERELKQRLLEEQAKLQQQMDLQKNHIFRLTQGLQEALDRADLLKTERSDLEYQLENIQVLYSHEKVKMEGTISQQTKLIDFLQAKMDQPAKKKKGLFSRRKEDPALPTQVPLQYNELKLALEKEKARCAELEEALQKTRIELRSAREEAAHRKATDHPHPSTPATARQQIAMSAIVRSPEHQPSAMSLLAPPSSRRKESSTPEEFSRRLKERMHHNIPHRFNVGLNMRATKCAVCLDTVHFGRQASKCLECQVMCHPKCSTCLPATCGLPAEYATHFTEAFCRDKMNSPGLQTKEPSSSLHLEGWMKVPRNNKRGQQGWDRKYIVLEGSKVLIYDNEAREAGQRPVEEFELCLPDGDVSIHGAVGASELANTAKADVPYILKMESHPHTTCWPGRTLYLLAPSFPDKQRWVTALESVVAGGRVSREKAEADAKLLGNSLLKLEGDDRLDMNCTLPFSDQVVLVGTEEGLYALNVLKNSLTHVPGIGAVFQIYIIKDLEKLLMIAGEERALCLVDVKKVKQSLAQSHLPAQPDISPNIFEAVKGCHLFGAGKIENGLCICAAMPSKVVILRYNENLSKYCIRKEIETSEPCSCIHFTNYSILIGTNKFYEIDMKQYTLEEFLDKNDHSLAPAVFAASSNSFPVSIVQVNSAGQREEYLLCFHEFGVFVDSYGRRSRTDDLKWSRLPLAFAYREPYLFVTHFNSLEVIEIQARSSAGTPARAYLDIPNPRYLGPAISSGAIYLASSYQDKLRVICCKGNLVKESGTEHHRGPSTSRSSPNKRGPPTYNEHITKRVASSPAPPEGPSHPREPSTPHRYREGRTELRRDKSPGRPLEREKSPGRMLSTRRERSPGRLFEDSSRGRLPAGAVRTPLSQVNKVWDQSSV
# CLK1 ; P49759-3;P49759;P49759-2, sequence (P49759 whole entry): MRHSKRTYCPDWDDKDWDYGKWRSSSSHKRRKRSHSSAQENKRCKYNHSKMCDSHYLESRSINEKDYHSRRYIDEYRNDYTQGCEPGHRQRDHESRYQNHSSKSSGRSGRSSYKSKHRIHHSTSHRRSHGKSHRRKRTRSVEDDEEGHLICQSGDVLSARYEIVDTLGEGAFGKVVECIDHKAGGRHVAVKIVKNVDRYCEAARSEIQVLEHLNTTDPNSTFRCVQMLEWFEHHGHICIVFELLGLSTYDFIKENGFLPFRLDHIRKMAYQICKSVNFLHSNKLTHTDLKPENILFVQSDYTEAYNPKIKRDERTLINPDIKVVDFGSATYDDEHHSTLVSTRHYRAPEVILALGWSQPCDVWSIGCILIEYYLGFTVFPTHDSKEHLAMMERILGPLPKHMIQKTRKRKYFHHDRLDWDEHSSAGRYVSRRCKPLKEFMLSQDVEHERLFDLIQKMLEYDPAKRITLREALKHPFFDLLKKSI
# TP53RK ; Q96S44, sequence (Q96S44 whole entry): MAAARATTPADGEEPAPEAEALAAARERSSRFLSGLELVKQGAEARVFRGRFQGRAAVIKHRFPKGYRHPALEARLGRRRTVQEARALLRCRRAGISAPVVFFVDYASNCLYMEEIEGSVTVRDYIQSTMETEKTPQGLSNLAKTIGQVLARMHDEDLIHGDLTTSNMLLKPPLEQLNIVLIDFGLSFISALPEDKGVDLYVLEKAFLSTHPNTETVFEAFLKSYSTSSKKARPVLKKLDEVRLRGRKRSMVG
# CLK2 ; P49760-3;P49760, sequence (P49760 whole entry): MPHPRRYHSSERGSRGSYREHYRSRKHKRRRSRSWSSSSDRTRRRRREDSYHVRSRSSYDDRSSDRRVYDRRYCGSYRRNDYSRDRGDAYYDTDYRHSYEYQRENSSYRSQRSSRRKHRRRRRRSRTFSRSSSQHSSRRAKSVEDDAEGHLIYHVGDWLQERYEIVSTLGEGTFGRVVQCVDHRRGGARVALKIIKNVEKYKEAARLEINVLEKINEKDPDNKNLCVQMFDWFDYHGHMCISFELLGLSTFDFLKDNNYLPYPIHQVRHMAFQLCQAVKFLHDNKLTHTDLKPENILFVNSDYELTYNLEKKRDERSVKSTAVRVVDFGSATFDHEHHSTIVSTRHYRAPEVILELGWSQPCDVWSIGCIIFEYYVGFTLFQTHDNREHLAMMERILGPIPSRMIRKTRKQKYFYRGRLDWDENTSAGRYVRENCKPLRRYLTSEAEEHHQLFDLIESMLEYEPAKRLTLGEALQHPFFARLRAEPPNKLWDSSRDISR
# CSNK2A2 ; P19784, sequence (P19784 whole entry): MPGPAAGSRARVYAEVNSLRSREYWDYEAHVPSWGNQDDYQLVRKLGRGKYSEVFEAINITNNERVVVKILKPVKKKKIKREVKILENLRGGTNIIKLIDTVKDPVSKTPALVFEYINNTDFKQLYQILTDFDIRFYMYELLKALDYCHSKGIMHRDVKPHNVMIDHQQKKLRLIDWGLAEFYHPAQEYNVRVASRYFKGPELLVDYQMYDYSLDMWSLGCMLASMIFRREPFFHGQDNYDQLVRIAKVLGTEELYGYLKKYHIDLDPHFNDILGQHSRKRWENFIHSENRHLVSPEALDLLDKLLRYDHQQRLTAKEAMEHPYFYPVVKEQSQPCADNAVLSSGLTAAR
smiles,measurement,setting,value
Nc1nn2cc(F)cnc2c1C(=O)Nc1cncc(F)c1N1CCC(C(=O)N2CCN(C3COC3)CC2)CC1 [Gartisertib],Kd,[1],113 nM
same,Kd,[2],15.4 nM
same,Kd,[3],40 nM
same,Kd,[4],153 nM
same,Kd,[5],70.9 nM
same,Kd,[6],473 nM
same,Kd,[7],358 nM
same,Kd,[8],303 nM
same,Kd,[9],15.1 nM
CNCc1ccc(-c2cc(-c3nc(-c4ccc(S(=O)(=O)C(C)C)cc4)cnc3N)on2)cc1 [Berzosertib],Kd,[10],21.4 nM
same,Kd,[11],33.2 nM
"Nc1ccn([C@@H]2O[C@H](CO)[C@@H](O)C2(F)F)c(=O)n1 [GEM, Gemcitabine]",Reponse,"[12]; FAMPAC, R1, 13.72 nM",385920
same,Reponse,"[12]; FAMPAC, R1, 41.15 nM",215680
same,Reponse,"[12]; FAMPAC, R1, 123.46 nM",157840
same,Reponse,"[12]; FAMPAC, R1, 370.37 nM",175320
same,Reponse,"[12]; FAMPAC, R1, 1111.11 nM",225320
same,Reponse,"[12]; FAMPAC, R1, 3333.33 nM",238760
same,Reponse,"[12]; FAMPAC, R1, 10000 nM",195520
same,Reponse,"[12]; FAMPAC, R2, 13.72 nM",606360
same,Reponse,"[12]; FAMPAC, R2, 41.15 nM",377000
same,Reponse,"[12]; FAMPAC, R2, 123.46 nM",333400
same,Reponse,"[12]; FAMPAC, R2, 370.37 nM",317560
same,Reponse,"[12]; FAMPAC, R2, 1111.11 nM",328240
same,Reponse,"[12]; FAMPAC, R2, 3333.33 nM",349400
same,Reponse,"[12]; FAMPAC, R2, 10000 nM",314920
same,Curve bottom,"[12]; FAMPAC, GEM curve fit",0.05
same,Curve effect size,"[12]; FAMPAC, GEM curve fit",0.95
same,Curve slope,"[12]; FAMPAC, GEM curve fit",2.01
same,Curve top,"[12]; FAMPAC, GEM curve fit",0.99
same,AUC,"[12]; FAMPAC, GEM curve fit, in %",25.43
same,EC50,[12]; read-out: EC50,1.71 nM
same,EC50,[12]; read-out: pEC50 (converted),1.7 nM
